System: CBS138 strain (wild strain)
Assay: Determination of 50% inhibitory concentration of antifungal drug on wild strain (turbidity at OD 600)
Format: cell-based, Candida glabrata
Conditions: Nakaseomyces glabratus, SD medium, 30° C., 20 hours, turbidity at OD 600 decreased to about 50%

IC50 [µM] | Structure (SMILES)
48 | CN(C/C=C/C#CC(C)(C)C)Cc1cccc2ccccc12 [terbinafine]
50 | OC(Cn1cncn1)(Cn1cncn1)c1ccc(F)cc1F [fluconazole]

— patent US20210040533A1, “METHOD FOR IDENTIFYING TARGET GENE OF TEST SUBSTANCE” (DRUG GENOMICS, LTD., priority 2018, published 2021)
